Each structure is given as a SMILES string.

The nature of the data set: pharmacokinetic studies (PK) of solid dispersions in fasted, famotidine or pentagastrin pre-treated dogs. The data set is classed as in vivo. As to conditions: above pH 2.5; dogs following pre-treatment with famotidine (FIG. 1). How it is done: Several rounds of pharmacokinetic studies (PK) were performed and included four diverse solid dispersions comprising 50 wt % amorphous (R)—N-((4-methoxy-6-methyl-2-oxo-1,2-dihydropyridin-3-yl)methyl)-2-methyl-1-(1-(1-(2,2,2-trifluoroethyl)piperidin-4-yl)ethyl)-1H-indole-3-carboxamide and PVP, PVP-PA with NaHCO3, HPMC, and HPMC-AS polymer systems, in fasted, famotidine treated dogs at a 30 mg/kg dose.
All solid dispersions were prepared as aqueous suspensions at 60 mg/mL in the toxicology vehicle, 0.5% MC/0.1% Tween 80 and does with 30 minutes of preparation. All dogs tested were carried over from study to study.

`COc1cc(C)[nH]c(=O)c1CNC(=O)c1c(C)n([C@H](C)C2CCN(CC(F)(F)F)CC2)c2ccccc12` [(R)—N-((4-methoxy-6-methyl-2-oxo-1,2-dihydropyridin-3-yl)methyl)-2-methyl-1-(1-(1-(2,2,2-trifluoroethyl)piperidin-4-yl)ethyl)-1H-indole-3-carboxamide]: the absorption entry was “reduced absorption”.

These data come from patent publication US20190381025A1, “SOLID DISPERSIONS OF (R)-N-((4-METHOXY-6-METHYL-2-OXO-1,2-DIHYDROPYRIDIN-3-YL)METHYL)-2-METHYL-1-(1-(1-(2,2,2-TRIFLUOROETHYL)PIPERIDIN-4-YL)ETHYL)-1H-INDOLE-3-CARBOXAMIDE” (Constellation Pharmaceuticals, Inc., priority 2017, published 2019).
